Measured values taken from patent publication US10034839B2, “Compositions and methods for delivery of kinase inhibiting peptides” (PURDUE RESEARCH FOUNDATION, priority 2012, dated 2018).
One block for each compound: values may come before it.

Legend:
[1] = KAFAK degradability assay in serum; type: in vitro ADME; details: for recovery at 12 hours / Integral of KAFAK Peak between 30-31% Acetonitrile: 12 hours at 37° C., then 24 hours at 4° C. (nanoparticles: purify & release in 2x salt)
Experimental: Samples tested include: peptide alone, serum alone, peptide in serum, and KAFAK loaded 5% AMPS nanoparticles in serum. Each sample volume also contained 0.5× PBS except when stated. Samples containing peptide initially contained 0.5 mg of peptide alone or 1.12 mg of loaded 5% AMPS particles with an equivalent amount of 0.5 mg peptide. Samples with serum were 0.5× serum and 0.5×PBS. Samples without serum were 0.5×PBS and 0.5× MilliQ water. Peptide alone, serum alone, peptide in serum, loaded nanoparticles alone, and loaded nanoparticles in serum were incubated for 12 hours at 37° C. on a shaker. After the 12 hour incubation, samples not containing nanoparticles were placed in the fridge at 4° C. for 24 hours before evaluation. Samples containing nanoparticles were centrifuged for 2 hours at room temperature at 30,000 rpm in an Optima L-90k Ultracentrifuge (Beckman Coulter, Indianapolis, Ind., USA). The nanoparticle pellet was briefly washed with MilliQ water and then resuspended in solution of 0.5×PBS and 0.5× MilliQ water. Samples were then placed in the fridge for 24 hours. Before the 24 hour nanoparticle sample was placed in the fridge to incubate, but after the pellet was dissolved, an additional amount of 0.257 molar concentration of NaCl was added to induce peptide release. This brought the final NaCl concentration to 0.342 molar or twice normal salt concentration in PBS. Additional NaCl was added to facilitate total release by introducing additional counter ions. Samples were evaluated by reverse phase chromotography on a FPLC (AKTA Explorer, GE Healthcare, Pittsburgh Pa., USA) with a 22/250 C18 prep-scale column (Grace Davidson, Deerfield, Ill., USA) and an acetonitrile gradient with 0.1% trifluoroacetic acid. Peptide was quantified by integrating the area under the peak of the FPLC. Peptide molecular weight was confirmed by time of flight MALDI mass spectrometry with a 4800 Plus MALDI TOF/TOF Analyzer (Applied Biosystems, Foster City, Calif., USA).

[2] = test system: IL-6 production in cartilage plugs; assay: IL-6 ELISA in bovine knee ex vivo inflammatory model; details: IL-1β stimulated aggrecan depleted plugs, treatment every two days
Experimental: Cartilage plugs were obtained from three month old bovine knee joints obtained from an abattoir within 24 hours of slaughter (Dutch Valley Veal, South Holland, Ill., USA). The plugs were removed from the load bearing region of the femoral condyle using a 3 mm diameter cork borer. They were then washed three times in serum free medium and equilibrated for three days in 5% FBS supplemented media. Osteoarthritis (OA)-like conditions were simulated by removal of native aggrecan using a previously described protocol. Briefly, plugs were treated with 0.5% (w/v) trypsin in HBSS for 3 hours at 37° C. After trypsin treatment plugs were washed three times in HBSS and incubated with 20% FBS to inactivate residual trypsin activity. Inflammation was initiated in the plugs by treating with 20 ng/mL II-1β. Nanoparticle treatments as specified in Table 1, were added after day two of culture. Fresh IL-1β and nanoparticles were added every two days for an eight day culture period. Media aliquots were collected and stored in −80° C. till further analysis.
IL-6 production was determined with a bovine IL-6 ELISA development kit (Thermo Scientific, Rockford, Ill., USA). Capture antibody was coated overnight onto Nunc MaxiSorp 96-well plates. […] The plate was read on absorbance plate reader at 450 nm with a correction at 550 nm. […]

[3] = previously reported; cited from earlier work
[4] = test system: THP-1 cells; details: THP1; corresponds to 60 μg dose of loaded particles; cited from earlier work
[5] = test system: citrated bovine whole blood; assay: Activated partial thromboplastin time (whole blood coagulation time); details: for Whole Blood Coagulation Time (s) Average (n = 3): nanoparticles 1.5 mg/ml final concentration in blood, collagen 6 mg/ml, heparin .001 mg/ml; for effect on coagulation: whole blood, nanoparticles 1.5 mg/ml
Experimental: Activated partial thromboplastin time (aPTT) was measured using a Hemochron® Response whole blood coagulation system. 2 ml citrated bovine whole blood and 200 μL nanoparticles in phosphate buffered saline (PBS) pH 7.4 (1.5 mg/ml final concentration in blood) were added to Hemochron® tubes containing colloidal kaolin activating agent and 0.02% thimerosal preservative agent. PBS was calcium and magnesium free. The tubes were then measured and aPTT was recorded. The aPTT for each sample was measured in triplicate. […] Louis, Mo., USA). Measurements with heparin were stopped after 1000 seconds.
As part of a preliminary assessment of utilizing poly(NIPAm-MBA-AMPS) as a blood contacting drug delivery vehicle, whole blood studies were done to determine the hemocompatibility of this system.

[6] = test system: blood; assay: Hemolysis assay ASTM F756; type: cell-based; details: nanoparticles 1.5 mg/ml, 37° C., 3 hours; Triton X-100 .01% by volume
Experimental: After 1000 seconds, experiments in the presence of heparin were stopped due to lack of clotting. Hemolytic assay ASTM standard protocol F756 was used to check if hemolysis occurred upon the addition of poly(NIPAm-MBA-AMPS) to the blood.
Hemolysis assays were performed following ASTM F756 with a BioSpec-1601 spectrophotometer (Shimadzu, Columbia, Md., USA). Determination of total blood hemoglobin was accomplished by using Drabkin's reagent and measuring the absorbance of free hemoglobin in solution at 540 nm. The total blood hemoglobin concentration was used to adjust the hemoglobin content of the blood sample to 10 mg±1 mg by adding blood and an equivalent amount of IX PBS solution. Percent hemolysis was normalized by dividing total hemolysis determined by a 0.01% v/v of Triton X-100, subtracting the absorbance of blood only, and setting absorbance of PBS to zero. Blood, 1 ml, was incubated with 100 μl of a 1.5 mg/ml solution of the nanoparticles in PBS at 37° C. for three hours under gentle shaking. After three hours samples were centrifuged at 750 g for 15 minutes. Supernatant was removed, added 1:1 to equivalent volume of Drabkins reagent, and incubated for 15 minutes before measurement. Absorbance measurements at 540 nm were then recorded using a spectrophotometer.

- recovery at 12 hours ([1]; 0.5× PBS and 0.5× MilliQ water (without serum), without serum): 100%
- Integral of KAFAK Peak between 30-31% Acetonitrile ([1]; in serum): 0 mAU * ml
- recovery at 12 hours ([1]; in serum): 0%
- time within which KAFAK peptide degraded ([1]; serum, 37° C., without a carrier): ≤ 12 h
- Integral of KAFAK Peak between 30-31% Acetonitrile ([1]; without serum): 593.3 mAU * ml
Compound: CC(C)C[C@H](NC(=O)[C@H](C)NC(=O)[C@H](CCCCN)NC(=O)[C@H](CCCNC(=N)N)NC(=O)[C@H](Cc1ccc(O)cc1)NC(=O)[C@H](CC(C)C)NC(=O)[C@H](CCCNC(=N)N)NC(=O)[C@H](C)NC(=O)[C@H](C)NC(=O)[C@H](CC(C)C)NC(=O)[C@H](CCCCN)NC(=O)[C@H](C)NC(=O)[C@H](Cc1ccccc1)NC(=O)[C@H](C)NC(=O)[C@@H](N)CCCCN)C(=O)N[C@@H](C)C(=O)N[C@@H](CCCNC(=N)N)C(=O)N[C@@H](CCC(N)=O)C(=O)N[C@@H](CC(C)C)C(=O)NCC(=O)N[C@H](C(=O)N[C@@H](C)C(=O)N[C@@H](C)C(N)=O)C(C)C [KAFAK]
- effect on IL-6 production [2]: lack of therapeutic activity
- serum half-life [3]: less than 12 hours
- upper toxicity limit [4]: 30 µM

Compound: Collagen
- Whole Blood Coagulation Time (s) Average (n = 3) [5]: 26 s
- effect on coagulation [5]: induce clotting

- Whole Blood Coagulation Time (s) Average (n = 3) [5]: >1000 s
- effect on coagulation [5]: inhibit coagulation
Compound: Heparin

Compound: Triton X-100
- Normalized Whole Blood % Hemolysis Average (n = 3) [6]: 100%
